# Assay results as given in patent publication US6989390B2, “Amonafide salts” (priority 2002, dated 2006).
# Tests used:
# Experiment in all cases: Hollow Fiber in vivo anti-cancer assay
# Design in all cases: species or system mice
# MDA-231 (Breast) = tested on: MDA-231 (Breast)
# Experimental: (§1) The in vivo activity was tested using the Hollow Fiber methodology developed by the National Cancer Institute: Developmental Therapeutics Branch for use in their antineoplastic agent screening program. Specifically, the anti-cancer activity of amonafide L-malate was tested by the following protocol.
# (§2) Polyvinylidene fluoride (PVDF) hollow fibers were used. The fibers were individually flushed and filled with 70% ethanol and incubated in 70% ethanol at room temperature for a minimum of 96 hour. Following three washes with deionized water, the fibers were filled with and placed into a pan of deionized water for sterilization by autoclaving. Then the fibers were stored in water at 4° C. until used.
# (§3) Mice were grouped into 4 groups, two control groups with 6 mice per group and 2 experimental groups with 3 mice per group.
# (§4) Anesthesia was induced in mice by ketamine/acepromazine/xylazine injected intraperitoneally (i.p.) For the intraperitoneal (i.p.) implants, a small incision was made through the skin and musculature of the dorsal abdominal wall, the fiber samples were inserted into the peritoneal cavity in a craniocaudal direction and the incision was closed with a skin staple. For subcutaneous (s.c.) implants, a small skin incision was made at the nape of the neck to allow insertion of an 11 gauge tumor implant trocar. The trocar, containing the hollow fiber samples, was inserted caudally through the subcutaneous tissues and the fibers were deposited during withdrawal of the trocar. The skin incision was closed with a skin staple. Each mouse was host of 6 samples, representing 3 tumor cells lines each of which was cultured in the 2 physiologic compartments (i.p. and s.c.).
# (§5) On the day following the last drug injection, the animals were sacrificed and the hollow fibers extracted. The hollow fibers were then subjected to the stable endpoint MTT assay as described in Example 5. The optical density of each sample is determined spectrophotometrically at 540 nm and the mean of each treatment group is calculated. The percent net growth for each cell line in each treatment group is calculated as described in Example 5 and compared to the percent net growth in the vehicle treated controls (Group B) using the formula below to determine the percent growth inhibition:
# (§6) % growth inhibition=(Net GrowthControl−Net GrowthTreated)/Net GrowthControl)*100
# COLO205 (Colorectal) = tested on: COLO205 (Colorectal)
# Experimental: as §1, §2, §3, §4, §5, §6
# MCF-7 (Breast) = tested on: MCF-7 (Breast)
# Experimental: as §1, §2, §3, §4, §5, §6
# H23 (Lung) = tested on: H23 (Lung)
# Experimental: as §1, §2, §3, §4, §5, §6
# PC3 (Prostate) = details: for % Growth Inhibition: 29.4 mg/kg i.p. once daily days 3-8
# Experimental: as §1, §2, §3, §4, §5, §6
compound,measurement,setting,value
CN(C)CCN1C(=O)c2cccc3cc(N)cc(c23)C1=O.O=C(O)C[C@H](O)C(=O)O [Amonafide Malate],% Growth Inhibition,"MDA-231 (Breast); MDA-231, I.P. fibers, 15 mg/kg i.p. twice-daily",93%
same,% Growth Inhibition,"MDA-231 (Breast); MDA-231, I.P. fibers, 29 mg/kg i.p. twice-daily",108%
same,% Growth Inhibition,"MDA-231 (Breast); MDA-231, S.C. fibers, 15 mg/kg i.p. twice-daily",79%
same,% Growth Inhibition,"MDA-231 (Breast); MDA-231, S.C. fibers, 29 mg/kg i.p. twice-daily",113%
same,percent growth inhibition (text summary of Tables 6-8),"MDA-231 (Breast); MDA-231, above 100% indicates lethality for cancerous cells",above 100%
same,percent growth inhibition (text summary of Tables 6-8),COLO205 (Colorectal); COLO205 (colorectal cancer),Significant percent growth inhibition
same,% Growth Inhibition,"COLO205 (Colorectal); COLO205, I.P. fibers, 15 mg/kg i.p. twice-daily",82%
same,% Growth Inhibition,"COLO205 (Colorectal); COLO205, I.P. fibers, 29 mg/kg i.p. twice-daily",98%
same,% Growth Inhibition,"COLO205 (Colorectal); COLO205, IP, 29.4 mg/kg i.p. once daily days 3-8",84.6%
same,% Growth Inhibition,"COLO205 (Colorectal); COLO205, S.C. fibers, 15 mg/kg i.p. twice-daily",50%
same,% Growth Inhibition,"COLO205 (Colorectal); COLO205, S.C. fibers, 29 mg/kg i.p. twice-daily",76%
same,% Growth Inhibition,"COLO205 (Colorectal); COLO205, SC, 29.4 mg/kg i.p. once daily days 3-8",80.4%
same,% Growth Inhibition,"MCF-7 (Breast); MCF-7, I.P. fibers, 15 mg/kg i.p. twice-daily",97%
same,% Growth Inhibition,"MCF-7 (Breast); MCF-7, I.P. fibers, 29 mg/kg i.p. twice-daily",124%
same,% Growth Inhibition,"MCF-7 (Breast); MCF-7, IP, 29.4 mg/kg i.p. once daily days 3-8",150.2%
same,% Growth Inhibition,"MCF-7 (Breast); MCF-7, S.C. fibers, 15 mg/kg i.p. twice-daily",83%
same,% Growth Inhibition,"MCF-7 (Breast); MCF-7, S.C. fibers, 29 mg/kg i.p. twice-daily",107%
same,% Growth Inhibition,"MCF-7 (Breast); MCF-7, SC, 29.4 mg/kg i.p. once daily days 3-8",116.1%
same,percent growth inhibition (text summary of Tables 6-8),"MCF-7 (Breast); MCF-7, above 100% indicates lethality for cancerous cells",above 100%
same,% Growth Inhibition,"H23 (Lung); H23, I.P. fibers, 15 mg/kg i.p. twice-daily",36%
same,% Growth Inhibition,"H23 (Lung); H23, I.P. fibers, 29 mg/kg i.p. twice-daily",47%
same,% Growth Inhibition,"H23 (Lung); H23, S.C. fibers, 15 mg/kg i.p. twice-daily",13%
same,% Growth Inhibition,"H23 (Lung); H23, S.C. fibers, 29 mg/kg i.p. twice-daily",27%
same,% Growth Inhibition,"PC3 (Prostate); PC3, IP",71.6%
same,% Growth Inhibition,"PC3 (Prostate); PC3, SC",52.9%
same,percent growth inhibition (text summary of Tables 6-8),PC3 (Prostate); PC-3 (prostate),Significant percent growth inhibition
